Publication PMC5218480 (PLoS ONE, 2017)

Tested on: MV-4-11 cells
Experiment: Gene expression microarray analysis (Affymetrix PrimeView) and GSEA
Type: cell-based, human
Design: RFU PODN (11730768_x_at) / Fold change /veh PODN (11730768_x_at) / RFU LINC00158 (11744669_a_at) / Fold change /veh LINC00158 (11744669_a_at) / RFU DUSP10 (11751237_a_at) / Fold change /veh DUSP10 (11751237_a_at) / RFU ID3 (11757404_x_at) / Fold change /veh ID3 (11757404_x_at) / RFU PLEKHG5 (11737974_s_at) / Fold change /veh PLEKHG5 (11737974_s_at) / RFU LRRC4B (11730491_at) / Fold change /veh LRRC4B (11730491_at) / RFU GIMAP4 (11747438_a_at) / Fold change /veh GIMAP4 (11747438_a_at) / RFU KRT8 (11758183_x_at) / Fold change /veh KRT8 (11758183_x_at) / RFU CNN1 (11734310_a_at) / Fold change /veh CNN1 (11734310_a_at) / RFU VPS37D (11726825_at) / Fold change /veh VPS37D (11726825_at) / RFU C10orf10 (11716522_x_at) / Fold change /veh C10orf10 (11716522_x_at) / RFU KIR2DL2 /// KIR2DL4 /// KIR2DL5A /// KIR2DL5B /// KIR2DS1 /// KIR2DS2 /// KIR2DS3 /// KIR2DS4 /// KIR3DL3 /// KIR3DL3 /// KIR3DS1 (11738374_at) / Fold change /veh KIR2DL2 /// KIR2DL4 /// KIR2DL5A /// KIR2DL5B /// KIR2DS1 /// KIR2DS2 /// KIR2DS3 /// KIR2DS4 /// KIR3DL3 /// KIR3DL3 /// KIR3DS1 (11738374_at) / RFU C1QL1 (11718748_at) / Fold change /veh C1QL1 (11718748_at) / RFU TMPRSS4 (11747572_a_at) / Fold change /veh TMPRSS4 (11747572_a_at) / RFU HAMP (11756126_x_at) / Fold change /veh HAMP (11756126_x_at) / RFU RNFT2 (11725882_a_at) / Fold change /veh RNFT2 (11725882_a_at) / RFU NR4A2 (11747474_a_at) / Fold change /veh NR4A2 (11747474_a_at) / RFU ABCC12 (11746883_a_at) / Fold change /veh ABCC12 (11746883_a_at) / RFU TMEM136 (11760407_x_at) / Fold change /veh TMEM136 (11760407_x_at) / RFU CLDN22 /// WWC2 (11732394_at) / Fold change /veh CLDN22 /// WWC2 (11732394_at) / RFU HLA-DPB1 (11760878_x_at) / Fold change /veh HLA-DPB1 (11760878_x_at) / RFU SPINT1 (11716480_a_at) / Fold change /veh SPINT1 (11716480_a_at) / RFU GAP43 (11754022_s_at) / Fold change /veh GAP43 (11754022_s_at) / RFU A4GNT (11735810_at) / Fold change /veh A4GNT (11735810_at) / RFU PRB3 (11715151_x_at) / Fold change /veh PRB3 (11715151_x_at) / RFU TUBB4B (11761932_at) / Fold change /veh TUBB4B (11761932_at) / RFU CAPN14 (11732068_a_at) / Fold change /veh CAPN14 (11732068_a_at) / RFU TMCC2 (11721928_a_at) / Fold change /veh TMCC2 (11721928_a_at) / RFU IRGQ (11745062_a_at) / Fold change /veh IRGQ (11745062_a_at) / RFU FAM174B (11720279_a_at) / Fold change /veh FAM174B (11720279_a_at) / RFU TMPRSS4 (11748680_a_at) / Fold change /veh TMPRSS4 (11748680_a_at) / RFU FAM212B (11763350_a_at) / Fold change /veh FAM212B (11763350_a_at) / RFU PLEKHG5 (11743358_a_at) / Fold change /veh PLEKHG5 (11743358_a_at) / RFU ZSCAN30 (11745921_a_at) / Fold change /veh ZSCAN30 (11745921_a_at) / RFU CMKLR1 (11741424_a_at) / Fold change /veh CMKLR1 (11741424_a_at) / RFU LOC101060620 /// MAPK8IP1 (11723275_at) / Fold change /veh LOC101060620 /// MAPK8IP1 (11723275_at) / RFU SPTSSB (11747773_x_at) / Fold change /veh SPTSSB (11747773_x_at) / RFU PRSS12 (11739890_at) / Fold change /veh PRSS12 (11739890_at) / RFU BIN1 (11741810_x_at) / Fold change /veh BIN1 (11741810_x_at) / RFU WNT11 (11732464_a_at) / Fold change /veh WNT11 (11732464_a_at) / RFU C10orf10 (11716521_a_at) / Fold change /veh C10orf10 (11716521_a_at) / RFU C5orf56 (11738089_at) / Fold change /veh C5orf56 (11738089_at) / RFU CYB561 (11721691_x_at) / Fold change /veh CYB561 (11721691_x_at) / RFU ANKRD19P (11752326_a_at) / Fold change /veh ANKRD19P (11752326_a_at) / RFU OR2T12 /// OR2T33 /// OR2T8 (11738714_s_at) / Fold change /veh OR2T12 /// OR2T33 /// OR2T8 (11738714_s_at) / RFU VCAN (11748164_a_at) / Fold change /veh VCAN (11748164_a_at) / RFU JSRP1 (11732532_at) / Fold change /veh JSRP1 (11732532_at) / RFU KRTAP10-11 (11738290_x_at) / Fold change /veh KRTAP10-11 (11738290_x_at) / RFU MYO3A (11730013_a_at) / Fold change /veh MYO3A (11730013_a_at) / RFU EBF3 (11725865_a_at) / Fold change /veh EBF3 (11725865_a_at) / RFU CAMK2N1 (11719241_x_at) / Fold change /veh CAMK2N1 (11719241_x_at) / RFU C5orf56 (11738088_a_at) / Fold change /veh C5orf56 (11738088_a_at) / RFU OLFML3 (11715873_a_at) / Fold change /veh OLFML3 (11715873_a_at) / RFU LOC100653217 /// NTM (11731650_a_at) / Fold change /veh LOC100653217 /// NTM (11731650_a_at) / RFU MAPK11 (11762145_a_at) / Fold change /veh MAPK11 (11762145_a_at) / RFU FIZ1 (11724087_x_at) / Fold change /veh FIZ1 (11724087_x_at) / RFU OASL (11726364_x_at) / Fold change /veh OASL (11726364_x_at) / RFU SOX15 (11748057_x_at) / Fold change /veh SOX15 (11748057_x_at) / RFU CD79A (11719716_a_at) / Fold change /veh CD79A (11719716_a_at) / RFU HIST1H1D (11736915_at) / Fold change /veh HIST1H1D (11736915_at) / RFU CASKIN2 (11723855_a_at) / Fold change /veh CASKIN2 (11723855_a_at) / RFU LOC730098 (11760151_x_at) / Fold change /veh LOC730098 (11760151_x_at) / RFU OR4N2 (11742367_at) / Fold change /veh OR4N2 (11742367_at) / RFU PRRT2 (11749266_a_at) / Fold change /veh PRRT2 (11749266_a_at) / RFU SNX32 (11753110_a_at) / Fold change /veh SNX32 (11753110_a_at) / RFU CDHR5 (11726645_a_at) / Fold change /veh CDHR5 (11726645_a_at) / RFU RCAN1 (11760418_a_at) / Fold change /veh RCAN1 (11760418_a_at) / RFU FAM167A (11723789_a_at) / Fold change /veh FAM167A (11723789_a_at) / RFU FAM26E (11764081_at) / Fold change /veh FAM26E (11764081_at) / RFU ISYNA1 (11749810_s_at) / Fold change /veh ISYNA1 (11749810_s_at) / RFU ACY1 (11761880_at) / Fold change /veh ACY1 (11761880_at) / RFU 11764098_at / Fold change /veh 11764098_at / RFU SAMD14 (11745864_x_at) / Fold change /veh SAMD14 (11745864_x_at) / RFU NPB (11741838_a_at) / Fold change /veh NPB (11741838_a_at) / RFU TMPRSS6 (11731388_a_at) / Fold change /veh TMPRSS6 (11731388_a_at) / RFU KRTAP10-2 (11738614_at) / Fold change /veh KRTAP10-2 (11738614_at) / RFU ARHGAP8 /// PRR5-ARHGAP8 (11727945_x_at) / Fold change /veh ARHGAP8 /// PRR5-ARHGAP8 (11727945_x_at) / RFU KRTAP5-7 /// NADSYN1 (11734609_at) / Fold change /veh KRTAP5-7 /// NADSYN1 (11734609_at) / RFU RASL12 (11751679_a_at) / Fold change /veh RASL12 (11751679_a_at) / RFU CDKN2B (11736163_a_at) / Fold change /veh CDKN2B (11736163_a_at) / RFU PRF1 (11729649_at) / Fold change /veh PRF1 (11729649_at) / RFU, ZNF638 /// ZNF638-IT1 / Fold change vs veh, ZNF638 /// ZNF638-IT1 / RFU, PANK3 / Fold change vs veh, PANK3 / RFU, SH3YL1 / Fold change vs veh, SH3YL1 / RFU, ZEB2 / Fold change vs veh, ZEB2 / RFU, NRIP1 / Fold change vs veh, NRIP1 / RFU, PTTG1IP / Fold change vs veh, PTTG1IP / RFU, CAPN2 / Fold change vs veh, CAPN2 / RFU, MED14 / Fold change vs veh, MED14 / RFU, SNORA58 / Fold change vs veh, SNORA58 / RFU, C1orf63 / Fold change vs veh, C1orf63 / RFU, LRRFIP1 / Fold change vs veh, LRRFIP1 / RFU, NDUFAF7 / Fold change vs veh, NDUFAF7 / RFU, SLC12A2 / Fold change vs veh, SLC12A2 / RFU, IBTK / Fold change vs veh, IBTK / RFU, ESF1 / Fold change vs veh, ESF1 / Fold change vs veh, TMEM50B / RFU, TAOK1 / Fold change vs veh, TAOK1 / RFU, ACBD3 / Fold change vs veh, ACBD3 / RFU, TMA16 / Fold change vs veh, TMA16 / RFU, RWDD3 / Fold change vs veh, RWDD3 / RFU, BCAT1 / Fold change vs veh, BCAT1 / RFU, EDEM3 / Fold change vs veh, EDEM3 / RFU, TMEM33 / Fold change vs veh, TMEM33 / RFU, WDR75 / Fold change vs veh, WDR75 / RFU, AHCTF1 / Fold change vs veh, AHCTF1 / RFU, TFRC / Fold change vs veh, TFRC / RFU, ZDHHC17 / Fold change vs veh, ZDHHC17 / RFU, NOM1 / Fold change vs veh, NOM1 / RFU, ARL8B / Fold change vs veh, ARL8B / RFU, ZBTB11 / Fold change vs veh, ZBTB11 / RFU, TAMM41 / Fold change vs veh, TAMM41 / RFU, KIAA1704 /// LOC100996395 / Fold change vs veh, KIAA1704 /// LOC100996395 / RFU, ING1 / Fold change vs veh, ING1 / RFU, TRMT61B / Fold change vs veh, TRMT61B / RFU, FUBP3 / Fold change vs veh, FUBP3 / RFU, TP53 / Fold change vs veh, TP53 / RFU, TNKS2 / Fold change vs veh, TNKS2 / RFU, ZFP14 / Fold change vs veh, ZFP14 / RFU, ACTR2 / Fold change vs veh, ACTR2 / RFU, PPP3R1 / Fold change vs veh, PPP3R1 / RFU, PIK3R1 / Fold change vs veh, PIK3R1 / RFU, HNRNPA1 / Fold change vs veh, HNRNPA1 / RFU, RNF170 / Fold change vs veh, RNF170 / RFU, ZNF28 / Fold change vs veh, ZNF28 / RFU, RNGTT / Fold change vs veh, RNGTT / RFU, OGT / Fold change vs veh, OGT / RFU, BRD1 / Fold change vs veh, BRD1 / RFU, MARS / Fold change vs veh, MARS / RFU, ZNF655 / Fold change vs veh, ZNF655 / RFU, FAHD1 / Fold change vs veh, FAHD1 / RFU, BDP1 / Fold change vs veh, BDP1 / RFU, LRRCC1 / Fold change vs veh, LRRCC1 / RFU, ARID1A / Fold change vs veh, ARID1A / RFU, ZNF146 / Fold change vs veh, ZNF146 / RFU, ZNF330 / Fold change vs veh, ZNF330 / RFU, GPN3 / Fold change vs veh, GPN3 / RFU, C9orf123 / Fold change vs veh, C9orf123 / RFU, N4BP2L2 / Fold change vs veh, N4BP2L2 / RFU, ARFIP1 / Fold change vs veh, ARFIP1 / RFU, FAM179B / Fold change vs veh, FAM179B / RFU, BCL10 / Fold change vs veh, BCL10 / RFU, UHRF1BP1L / Fold change vs veh, UHRF1BP1L / RFU, BET1 / Fold change vs veh, BET1 / RFU, CNOT2 / Fold change vs veh, CNOT2 / RFU, ZNF268 / Fold change vs veh, ZNF268 / Fold change vs veh, ZNF507 / RFU, DGCR2 / Fold change vs veh, DGCR2 / RFU, WDSUB1 / Fold change vs veh, WDSUB1 / Fold change vs veh, HSP90B1 /// MIR3652 / RFU, ADSS / Fold change vs veh, ADSS / RFU, GK / Fold change vs veh, GK / RFU, ZNF148 / Fold change vs veh, ZNF148 / RFU, TAF9 / Fold change vs veh, TAF9 / RFU, SLC1A5 / Fold change vs veh, SLC1A5 / RFU, SLMO2 / Fold change vs veh, SLMO2 / RFU, ABCC4 / Fold change vs veh, ABCC4 / RFU, LOC101060439 /// RAP1B / Fold change vs veh, LOC101060439 /// RAP1B / RFU, RFX7 / Fold change vs veh, RFX7 / RFU, GTPBP10 / Fold change vs veh, GTPBP10 / RFU, CNEP1R1 / Fold change vs veh, CNEP1R1 / RFU, BIVM-ERCC5 /// ERCC5 / Fold change vs veh, BIVM-ERCC5 /// ERCC5 / RFU, ILF3 / Fold change vs veh, ILF3 / RFU 11762660_at / Fold change /veh 11762660_at / RFU VCAN (11757783_s_at) / Fold change /veh VCAN (11757783_s_at) / RFU DDX43 (11728927_at) / Fold change /veh DDX43 (11728927_at) / RFU KRT8 (11758188_x_at) / Fold change /veh KRT8 (11758188_x_at) / RFU NKD1 (11759106_at) / Fold change /veh NKD1 (11759106_at) / RFU SRD5A1 (11742802_a_at) / Fold change /veh SRD5A1 (11742802_a_at) / RFU TPSAB1 /// TPSB2 (11721975_s_at) / Fold change /veh TPSAB1 /// TPSB2 (11721975_s_at) / RFU GSTM3 (11746129_a_at) / Fold change /veh GSTM3 (11746129_a_at) / RFU IL23R (11737362_x_at) / Fold change /veh IL23R (11737362_x_at) / RFU TMEM51 (11727254_a_at) / Fold change /veh TMEM51 (11727254_a_at) / RFU PIWIL2 (11732686_x_at) / Fold change /veh PIWIL2 (11732686_x_at) / RFU ORM1 (11744905_x_at) / Fold change /veh ORM1 (11744905_x_at) / RFU CCDC152 (11743942_at) / Fold change /veh CCDC152 (11743942_at) / RFU ECM1 (11717891_a_at) / Fold change /veh ECM1 (11717891_a_at) / RFU IL23R (11748794_a_at) / Fold change /veh IL23R (11748794_a_at) / RFU TNFAIP8L3 (11732012_x_at) / Fold change /veh TNFAIP8L3 (11732012_x_at) / RFU MBOAT4 (11741988_at) / Fold change /veh MBOAT4 (11741988_at) / RFU 11764193_at / Fold change /veh 11764193_at / RFU TMEM53 (11763286_at) / Fold change /veh TMEM53 (11763286_at) / RFU MAGEB2 (11727129_at) / Fold change /veh MAGEB2 (11727129_at) / RFU TMEM200A (11744735_a_at) / Fold change /veh TMEM200A (11744735_a_at) / RFU CCDC152 (11751479_a_at) / Fold change /veh CCDC152 (11751479_a_at) / RFU FAM211A (11726209_a_at) / Fold change /veh FAM211A (11726209_a_at) / RFU RGS16 (11746705_a_at) / Fold change /veh RGS16 (11746705_a_at) / RFU VCAN (11755009_s_at) / Fold change /veh VCAN (11755009_s_at) / RFU RHOB (11743442_s_at) / Fold change /veh RHOB (11743442_s_at) / RFU RGS16 (11720943_a_at) / Fold change /veh RGS16 (11720943_a_at) / RFU RGS16 (11720944_at) / Fold change /veh RGS16 (11720944_at) / RFU, VPS4B / Fold change vs veh, VPS4B / RFU, CREB1 / Fold change vs veh, CREB1 / RFU, DNAJC13 / Fold change vs veh, DNAJC13 / RFU, GNAQ / Fold change vs veh, GNAQ / RFU, CDK5R1 / Fold change vs veh, CDK5R1 / RFU, ZRANB3 / Fold change vs veh, ZRANB3 / RFU, CUL4A / Fold change vs veh, CUL4A / RFU, CCNY / Fold change vs veh, CCNY / RFU, UFL1 / Fold change vs veh, UFL1 / RFU, COG3 / Fold change vs veh, COG3 / RFU, DIAPH2 / Fold change vs veh, DIAPH2 / RFU, SKA2 / Fold change vs veh, SKA2 / RFU, AFF3 / Fold change vs veh, AFF3 / RFU, LMF1 / Fold change vs veh, LMF1 / RFU, IPO11 / Fold change vs veh, IPO11 / RFU, DFFB / Fold change vs veh, DFFB / RFU, FOXP1 / Fold change vs veh, FOXP1 / RFU, CARD8 / Fold change vs veh, CARD8 / RFU, STRN3 / Fold change vs veh, STRN3 / RFU, ADK / Fold change vs veh, ADK / RFU, RASSF2 / Fold change vs veh, RASSF2 / RFU, WIPF1 / Fold change vs veh, WIPF1 / RFU, LARP1B / Fold change vs veh, LARP1B / RFU, RASA1 / Fold change vs veh, RASA1 / RFU, RB1 / Fold change vs veh, RB1 / RFU, PPFIA1 / Fold change vs veh, PPFIA1 / RFU, MAT2A / Fold change vs veh, MAT2A / RFU, CCT5 / Fold change vs veh, CCT5 / RFU, WDR92 / Fold change vs veh, WDR92 / RFU, CUX1 / Fold change vs veh, CUX1 / RFU, TTC7A / Fold change vs veh, TTC7A / RFU, TMEM135 / Fold change vs veh, TMEM135 / RFU, DEPTOR / Fold change vs veh, DEPTOR / RFU, CPM / Fold change vs veh, CPM / RFU, DNAJB6 / Fold change vs veh, DNAJB6 / RFU, CACNA2D3 / Fold change vs veh, CACNA2D3 / RFU, DTX4 / Fold change vs veh, DTX4 / RFU, TFCP2 / Fold change vs veh, TFCP2 / RFU, GMCL1 /// GMCL1P1 / Fold change vs veh, GMCL1 /// GMCL1P1 / RFU, AEBP2 / Fold change vs veh, AEBP2 / RFU, SNHG1 /// SNORD22 /// SNORD25 /// SNORD26 /// SNORD27 /// SNORD28 /// SNORD29 /// SNORD31 / Fold change vs veh, SNHG1 /// SNORD22 /// SNORD25 /// SNORD26 /// SNORD27 /// SNORD28 /// SNORD29 /// SNORD31 / Fold change (Aza/veh), C12orf56 (ProbeSet 11735607_a_at) / Fold change (ACY-1035/veh), C12orf56 (ProbeSet 11735607_a_at) / Fold change (Aza/veh), FGFR1OP (ProbeSet 11751329_s_at) / Fold change (ACY-1035/veh), FGFR1OP (ProbeSet 11751329_s_at) / Fold change (Aza/veh), VPS36 (ProbeSet 11739960_a_at) / Fold change (ACY-1035/veh), VPS36 (ProbeSet 11739960_a_at) / RFU SYPL1 (11715823_x_at) / Fold change /veh SYPL1 (11715823_x_at) / RFU IGFBP7 (11715501_s_at) / Fold change /veh IGFBP7 (11715501_s_at) / RFU REEP3 (11722064_at) / Fold change /veh REEP3 (11722064_at) / RFU IGLL1 (11728026_x_at) / Fold change /veh IGLL1 (11728026_x_at): dose or concentration left out as unconfirmed
Settings: MV-4-11 cells, 48 hours

`Nc1ncn([C@@H]2O[C@H](CO)[C@@H](O)[C@H]2O)c(=O)n1` [azacitidine] was tested. Which “Fold change /veh GSTM3 (11746129_a_at)” value did it give?
Its value is 1.35.
